Results on one compound are retold here after US11369648B2 (priority 2018, dated 2022).

SMILES strings stand for the structures. Entries after “also recorded” stand apart in the source; their conditions may differ.

Test [1] relates to influenza virus. As to the kind of experiment: Effect on viral load in lungs of influenza mice (qPCR). The class given is in vivo, ICR female mice.
The test system of test [2] is influenza virus. Briefly: Effect on body weight of influenza mice. The class given is in vivo, ICR female mice. The settings on record: fourth day after challenge, bacteria 10^9 CFU intragastrically daily from two weeks before challenge, ribavirin intraperitoneally from second day.
Test [3] deals with influenza virus. Further details: species or system ICR female mice. The settings on record: mouse, in vivo.
Another test concerns antiviral protein MxA. The class given is in vivo, ICR female mice. The settings on record: qPCR, GAPDH internal reference, 2^-ΔΔt, times that of the model group. (In qPCR the cycle at which signal appears reflects the starting amount.)
The subject of test [4] is influenza virus. Briefly: Effect on blood indexes (neutrophils, lymphocytes) of influenza mice. Further details: species or system ICR female mice. The following applies: mouse, in vivo.

`NC(=O)c1ncn([C@@H]2O[C@H](CO)[C@@H](O)[C@H]2O)n1` [Treatment, ribavirin]: the “reduction in viral load in the lungs (significance versus model group)” value in the test on influenza virus [1] (mouse, in vivo) was “has significance”. Moreover, the “viral load in the lungs, relative to the model group” value in the test on influenza virus [1] (right lung, fifth day after challenge, qPCR, GAPDH internal reference, 2^-ΔΔt, % of that of the model group) amounted to 38.03%. Moreover, in the test on influenza virus [2], the “body weight decrease compared with the control group (Control)” value is given as “about 5%”. The “lung histopathology (inflammation, infiltration of inflammatory cells)” value in the test with influenza virus [3] is “mild infiltration of inflammatory cells; also recorded: relatively mild inflammation; also recorded: some moderate and mild inflammation”. Besides, in the test on antiviral protein MxA, the “expression quantity of MxA in the lungs, relative to the model group (Model)” value is reported as 2.62 times. For the same compound, in the test with influenza virus [4], the “lymphocytes, change compared with the blank control group (Control)” value is on record as “without significant differences” and the “neutrophils, change compared with the blank control group (Control)” value was “without significant differences”.
